Results taken from patent US20250304559A1, “Ether-Linked Antiviral Compounds” (Pfizer Inc., priority 2021, published 2025).
Read-outs that look alike come from different tables or passages of the source.

What was measured:
SARS-CoV-2 3CL protease = target: T1, SARS-CoV-2 3CL protease (Severe acute respiratory syndrome coronavirus 2, UniProt P0DTD1); test: SARS-CoV-2 Coronavirus 3C Protease FRET Assay; type: biochemical; conditions: Morrison equation fit, 15 nM enzyme, 25 μM peptide substrate
T1 construct: measures the activity of full-length SARS-CoV-2 3CL protease

[1] = test system: SARS-CoV-2 (USA_WA1/2020); test: Antiviral Activity from SARS-CoV-2 Infection (cytopathic effect, Cell Titer-Glo); type: cell-based; conditions: Severe acute respiratory syndrome coronavirus 2, Vero C1008, 72 h, VeroE6 cells enriched for hACE2, MOI 0.002, 3-day incubation; tested alone or with P-gp inhibitor CP-100356 2 μM (table does not say which); read-out: Geometric Mean EC50
[2] = Examples 14-78 and 114 (second head of Table 2), read-out: Geometric Mean Ki (nM) IC50
[3] = Examples 1-13, 60 minutes at 23° C., read-out: Geometric Mean Ki

| Structure (SMILES) | Ki (SARS-CoV-2 3CL protease; [2]) | EC50 [1] | Ki (SARS-CoV-2 3CL protease; [3]) |
| --- | --- | --- | --- |
| CCn1nc(C)cc1OCC(=O)[C@H](C[C@@H]1CCNC1=O)NC(=O)[C@@H]1[C@@H]2[C@H](CN1C(=O)[C@@H](NC(=O)OC)C(C)(C)C)C2(C)C [Example 33, methyl {(2S)-1-[(1R,2S,5S)-2-({(2S)-4-[(1-ethyl-3-methyl-1H-pyrazol-5-yl)oxy]-3-oxo-1-[(3S)-2-oxopyrrolidin-3-yl]butan-2-yl}carbamoyl)-6,6-dimethyl-3-azabicyclo[3.1.0]hexan-3-yl]-3,3-dimethyl-1-oxobutan-2-yl}carbamate] | 3.04 nM | 1270 nM |  |
| CC(C)[C@H](NC(=O)C(F)(F)F)C(=O)N1C[C@H]2[C@@H]([C@H]1C(=O)N[C@@H](C[C@@H]1CCNC1=O)C(=O)COc1cnsn1)C2(C)C [Example 62, (1R,2S,5S)-6,6-dimethyl-N-{(2S)-3-oxo-1-[(3S)-2-oxopyrrolidin-3-yl]-4-[(1,2,5-thiadiazol-3-yl)oxy]butan-2-yl}-3-[N-(trifluoroacetyl)-L-valyl]-3-azabicyclo[3.1.0]hexane-2-carboxamide] | 55.7 nM | 1870 nM |  |
| CC(C)(C)[C@H](NS(C)(=O)=O)C(=O)N1C[C@H]2[C@@H]([C@H]1C(=O)N[C@@H](C[C@@H]1CCNC1=O)C(=O)COc1ccc(F)cc1F)C2(C)C [Example 13, (1R,2S,5S)-N-{(2S)-4-(2,4-difluorophenoxy)-3-oxo-1-[(3S)-2-oxopyrrolidin-3-yl]butan-2-yl}-6,6-dimethyl-3-[3-methyl-N-(methylsulfonyl)-L-valyl]-3-azabicyclo[3.1.0]hexane-2-carboxamide] |  | 98.6 nM | 1.78 nM |
| CC(C)(C)[C@H](NS(=O)(=O)C(F)(F)F)C(=O)N1C[C@H]2[C@@H]([C@H]1C(=O)N[C@@H](C[C@@H]1CCNC1=O)C(=O)COc1cccc(C(F)(F)F)c1)C2(C)C [Example 10, (1R,2S,5S)-6,6-dimethyl-3-{3-methyl-N-[(trifluoromethyl)sulfonyl]-L-valyl}-N-{(2S)-3-oxo-1-[(3S)-2-oxopyrrolidin-3-yl]-4-[3-(trifluoromethyl)phenoxy]butan-2-yl}-3-azabicyclo[3.1.0]hexane-2-carboxamide] |  | 167 nM | 8.34 nM |
| CC(C)[C@H](NC(=O)C(F)(F)F)C(=O)N1CC[C@@H](C)C[C@H]1C(=O)N[C@@H](C[C@@H]1CCNC1=O)C(=O)COc1ccc(F)cc1F (relative stereo) [Example 69, (2R*,4S*)-N-{(2S)-4-(2,4-difluorophenoxy)-3-oxo-1-[(3S)-2-oxopyrrolidin-3-yl]butan-2-yl}-4-methyl-1-[N-(trifluoroacetyl)-L-valyl]piperidine-2-carboxamide] | 219 nM | 562 nM |  |
| COC(=O)N[C@H](C(=O)N1C[C@H]2[C@@H]([C@H]1C(=O)N[C@@H](C[C@@H]1CCNC1=O)C(=O)COc1cccc(Cl)c1)C2(C)C)C(C)C [Example 25, methyl {(2S)-1-[(1R,2S,5S)-2-({(2S)-4-(3-chlorophenoxy)-3-oxo-1-[(3S)-2-oxopyrrolidin-3-yl]butan-2-yl}carbamoyl)-6,6-dimethyl-3-azabicyclo[3.1.0]hexan-3-yl]-3-methyl-1-oxobutan-2-yl}carbamate] | 1.76 nM | 38.2 nM |  |
| CCn1nc(C)cc1OCC(=O)[C@H](C[C@@H]1CCNC1=O)NC(=O)[C@@H]1[C@@H]2[C@H](CN1C(=O)[C@@H](NC(=O)C(F)(F)F)C(C)(C)C)C2(C)C [Example 27, (1R,2S,5S)-N-{(2S)-4-[(1-ethyl-3-methyl-1H-pyrazol-5-yl)oxy]-3-oxo-1-[(3S)-2-oxopyrrolidin-3-yl]butan-2-yl}-6,6-dimethyl-3-[3-methyl-N-(trifluoroacetyl)-L-valyl]-3-azabicyclo[3.1.0]hexane-2-carboxamide] | 8.84 nM | 422 nM |  |
| CC(C)[C@H](NC(=O)C(F)(F)F)C(=O)N1C[C@H]2[C@@H]([C@H]1C(=O)NC(C[C@@H]1CCNC1=O)C(=O)COc1ccc(F)cc1F)C2(C)C (mixture of isomers) [Example 35, (1R,2S,5S)-N-{(2RS)-4-(2,4-difluorophenoxy)-3-oxo-1-[(3S)-2-oxopyrrolidin-3-yl]butan-2-yl}-6,6-dimethyl-3-[N-(trifluoroacetyl)-L-valyl]-3-azabicyclo[3.1.0]hexane-2-carboxamide] | 2.76 nM | 93.8 nM |  |
| CC(C)(C)[C@H](NS(=O)(=O)C(F)(F)F)C(=O)N1C[C@H]2[C@@H]([C@H]1C(=O)N[C@@H](C[C@@H]1CCNC1=O)C(=O)COc1cccc(Cl)c1)C2(C)C [Example 28, (1R,2S,5S)-N-{(2S)-4-(3-chlorophenoxy)-3-oxo-1-[(3S)-2-oxopyrrolidin-3-yl]butan-2-yl}-6,6-dimethyl-3-[3-methyl-N-(trifluoromethanesulfonyl)-L-valyl]-3-azabicyclo[3.1.0]hexane-2-carboxamide] | 2.15 nM | 16.8 nM |  |
| CC(C)C[C@@H](C(=O)N1C[C@H]2[C@@H]([C@H]1C(=O)N[C@@H](C[C@@H]1CCNC1=O)C(=O)COc1cc(C(F)(F)F)nn1C)C2(C)C)N(C)C(C)C (single isomer, unassigned) [Example 65, (1R,2S,5S)-6,6-dimethyl-3-[N-methyl-N-(propan-2-yl)-L-leucyl]-N-{(2R*)-4-{[1-methyl-3-(trifluoromethyl)-1H-pyrazol-5-yl]oxy}-3-oxo-1-[(3S)-2-oxopyrrolidin-3-yl]butan-2-yl}-3-azabicyclo[3.1.0]hexane-2-carboxamide, DIAST-1] | 96.7 nM | 133 nM |  |
| CC(C)(C)[C@H](NS(=O)(=O)C(F)(F)F)C(=O)N1C[C@H]2[C@@H]([C@H]1C(=O)N[C@@H](C[C@@H]1CCNC1=O)C(=O)COc1ccc(F)cc1F)C2(C)C [Example 3, (1R,2S,5S)-N-{(2S)-4-(2,4-difluorophenoxy)-3-oxo-1-[(3S)-2-oxopyrrolidin-3-yl]butan-2-yl}-6,6-dimethyl-3-{3-methyl-N-[(trifluoromethyl)sulfonyl]-L-valyl}-3-azabicyclo[3.1.0]hexane-2-carboxamide] |  | 207 nM | 3.5 nM |
| COC(=O)N[C@H](C(=O)N1C[C@H]2[C@@H]([C@H]1C(=O)N[C@@H](C[C@@H]1CCNC1=O)C(=O)COc1ccc(F)cc1)C2(C)C)C(C)(C)C [Example 21, methyl {(2S)-1-[(1R,2S,5S)-2-({(2S)-4-(4-fluorophenoxy)-3-oxo-1-[(3S)-2-oxopyrrolidin-3-yl]butan-2-yl}carbamoyl)-6,6-dimethyl-3-azabicyclo[3.1.0]hexan-3-yl]-3,3-dimethyl-1-oxobutan-2-yl}carbamate] | 2.2 nM | 18.8 nM |  |
| CC[C@@H]([C@H](NS(=O)(=O)C(F)(F)F)C(=O)N1C[C@H]2[C@@H]([C@H]1C(=O)N[C@@H](C[C@@H]1CCNC1=O)C(=O)COc1ccc(F)cc1F)C2(C)C)C(F)(F)F [Example 70, (1R,2S,5S)-N-{(2S)-4-(2,4-difluorophenoxy)-3-oxo-1-[(3S)-2-oxopyrrolidin-3-yl]butan-2-yl}-6,6-dimethyl-3-[3′,3′,3′-trifluoro-N-(trifluoromethanesulfonyl)-L-isoleucyl]-3-azabicyclo[3.1.0]hexane-2-carboxamide] | 203 nM | 5440 nM |  |
| COC(=O)N[C@H](C(=O)N1C[C@H]2[C@@H]([C@H]1C(=O)N[C@@H](C[C@@H]1CCNC1=O)C(=O)COc1ccc(F)cc1F)C2(C)C)C(C)(C)C [Example 24, methyl {(2S)-1-[(1R,2S,5S)-2-({(2S)-4-(2,4-difluorophenoxy)-3-oxo-1-[(3S)-2-oxopyrrolidin-3-yl]butan-2-yl}carbamoyl)-6,6-dimethyl-3-azabicyclo[3.1.0]hexan-3-yl]-3,3-dimethyl-1-oxobutan-2-yl}carbamate] | 1.41 nM | 17 nM |  |
| COc1ccc(COCC(=O)[C@H](C[C@@H]2CCNC2=O)NC(=O)[C@@H]2[C@@H]3[C@H](CN2C(=O)[C@@H](NC(=O)C(F)(F)F)C(C)(C)C)C3(C)C)cc1 [Example 14, (1R,2S,5S)-N-{(2S)-4-[(4-methoxyphenyl)methoxy]-3-oxo-1-[(3S)-2-oxopyrrolidin-3-yl]butan-2-yl}-6,6-dimethyl-3-[3-methyl-N-(trifluoroacetyl)-L-valyl]-3-azabicyclo[3.1.0]hexane-2-carboxamide] | 3.48 nM | 48.7 nM |  |
| Cc1ccc2nc(OCC(=O)[C@H](C[C@@H]3CCNC3=O)NC(=O)[C@@H]3[C@@H]4[C@H](CN3C(=O)[C@@H](NC(=O)C(F)(F)F)C(C)C)C4(C)C)oc2c1 [Example 72, (1R,2S,5S)-6,6-dimethyl-N-{(2S)-4-[(6-methyl-1,3-benzoxazol-2-yl)oxy]-3-oxo-1-[(3S)-2-oxopyrrolidin-3-yl]butan-2-yl}-3-[N-(trifluoroacetyl)-L-valyl]-3-azabicyclo[3.1.0]hexane-2-carboxamide] | 505 nM | 19000 nM |  |
